Test results published in patent publication US20160289651A1, “ULK1 COMPOSITIONS, INHIBITORS, SCREENING AND METHODS OF USE” (Salk Institute for Biological Studies, priority 2009, published 2016).
Entries after “also recorded” stand apart in the source; their conditions may differ.

What was measured:
[1] = test system: endogenous ULK1; assay: Immunoblot of endogenous ULK1 P-Ser555 in primary murine embryonic fibroblasts (MEFs); type: cell-based; conditions: wild-type vs AMPK-deficient, 2 mM AICAR for 1 h
[2] = test system: endogenous ULK1; assay: Immunoblot of endogenous ULK1 Ser555 phosphorylation in primary murine hepatocytes; type: cell-based; conditions: wild-type vs AMPK-deficient, 2 mM metformin for 2 h
Procedure: Data shown as mean+/−SEM. * p<0.01 (B) Primary hepatocytes derived from ULK1^+/+ or ULK1^+/− mice or AMPKa1^−/− a2^L/+ or AMPKa1^−/− a2^L/L as described in methods were placed in media containing 2 mM metformin (met) or vehicle (veh) for 2 h. Lysates were immunoblotted with the indicated antibodies.
Primary hepatocytes were isolated. Briefly, livers were perfused with Hank's balanced salt solution (HESS, KCI, 5.4 mM; KH2PO4, 0.45 mM; NaCl, 138 mM; NaHCO2, 4.2 mM; Na2HPO4, 0.34 mM; glucose, 5.5 mM; HEPES, 1 M; EGTA, 50 mM; CaCl2, 50 mM; pH 7.4). Livers were washed at a rate of 5 ml/min using the portal vein before collagenase (0.025%) was added. Cell viability was assessed by the trypan blue exclusion test and was always higher than 60%. […]
Cell lysis, immunoprecipitations, and mammalian autophagy analysis. […] Immunoprecipitated proteins were denatured by the addition of 20 pl of sample buffer and boiling for 5 minutes, resolved by 8%-16% SDSPAGE, and analyzed by immunoblottina as described. […] Quantification of westerns blots was achieved using Kodak Multi Gage software and normalizing to the appropriate loading control (actin when comparing p62 or LC3, or total protein level when comparing phospho-specific antibodies). […]

[3] = test system: ULK1; assay: Tandem mass spectrometry (LC/MS/MS) of phosphorylation sites on myc-ULK1 from HEK293T cells; type: cell-based, human
Procedure: FIG. 7A is a diagram of all LC/MS/MS identified in vivo phosphorylation sites in human ULK1. Myc-ULK1 was transfected into human embryonic kidney (HEK)-293T cells, treated with 5 mM phenformin to reduce cellular ATP for 1 hour and immunoprecipitated with anti myc antibody. The IP was run out on SDS PAGE, stained with coomassie, and the band corresponding to myc-ULK1 was cut out, and isolated and subjected to tryptic digest and LC/MS/MS analysis. Three indicated sites matching the AMPK substrate motif were identified, all mapping to the serine-rich unstructured region between the N-terminal kinase domain and the conserved C-terminus that mediates ULK1 binding to its subunits Atg13 and FIP200.
FIG. 7B is a bar graph of quantitative mass spec spectrometry (MS/MS TIC ratio quantification) data showing that tryptic peptides containing Phospho5er555 and Phospho-5er637 of ULK1 are induced by treatment of HEK293T cells with 5 mM phenformin for 1 h.
Mass Spectrometry. Myc-ULK1 overexpressed in HEK293T cells was treated with vehicle or 5 mM phenformin for 1 hour, IP'd with anti myc antibody (Cell Signaling), run out on SDS-PAGE gel and coomassie stained. […] Peptide ions from AMPK predicted phosphorylation sites were also targeted in MS/MS mode for quantitative analyses. […]
Relative Quantification of Phosphorylation Sites. […]

[4] = test system: ULK1; assay: Immunoblot with phospho-specific antibodies against ULK1 Ser467 and Ser555 in transfected HEK293T cells; type: cell-based, human; conditions: HEK293T cells with myc-tagged ULK1, 1 mM phenformin for 1 h vs vehicle
Procedure: FIGS. 1A-1F show ULK1 is a conserved substrate of AMPK. (A) Clustal alignment of four conserved sites in ULK1 and two sites in ULK2 matching the optimal AMPK substrate motif. (B) ULK1 and GST or GST-14-3-3 expression vectors were transfected into human embryonic kidney (HEK)293T cells, and placed in media containing […] STO-609 (STO), vehicle (veh), or 5 mM phenformin (Phen) for 1 h. Cell lysates and GST pulldowns were immunoblotted as indicated. […] (D) HEK293T cells transfected with myc-tagged wild-type ULK1 or indicated Serine-to-alanine ULK1 mutants were treated with either vehicle or 1 mM phenformin for 1 h, or were co-transfected with a constitutively active AMPKα1 (aa1-312) mammalian expression vector (11). Proteins from lysates were immunoblotted with phospho-specific antibodies as indicated. […] Phosphorylation of myc-ULK1 detected by immunoblotting with indicated phospho-specific antibodies. […]
Cell lysis, immunoprecipitations, and mammalian autophagy analysis. […] Immunoprecipitated proteins were denatured by the addition of […] of sample buffer and boiling for 5 minutes, resolved by 8%-16% SDSPAGE, and analyzed by immunoblottina as described. […] Quantification of westerns blots was achieved using Kodak Multi Gage software and normalizing to the appropriate loading control (actin when comparing p62 or LC3, or total protein level when comparing phospho-specific antibodies). […]

[5] = test system: T1, myc-tagged catalytically inactive (KI: K46I) ULK1
T1 sequence: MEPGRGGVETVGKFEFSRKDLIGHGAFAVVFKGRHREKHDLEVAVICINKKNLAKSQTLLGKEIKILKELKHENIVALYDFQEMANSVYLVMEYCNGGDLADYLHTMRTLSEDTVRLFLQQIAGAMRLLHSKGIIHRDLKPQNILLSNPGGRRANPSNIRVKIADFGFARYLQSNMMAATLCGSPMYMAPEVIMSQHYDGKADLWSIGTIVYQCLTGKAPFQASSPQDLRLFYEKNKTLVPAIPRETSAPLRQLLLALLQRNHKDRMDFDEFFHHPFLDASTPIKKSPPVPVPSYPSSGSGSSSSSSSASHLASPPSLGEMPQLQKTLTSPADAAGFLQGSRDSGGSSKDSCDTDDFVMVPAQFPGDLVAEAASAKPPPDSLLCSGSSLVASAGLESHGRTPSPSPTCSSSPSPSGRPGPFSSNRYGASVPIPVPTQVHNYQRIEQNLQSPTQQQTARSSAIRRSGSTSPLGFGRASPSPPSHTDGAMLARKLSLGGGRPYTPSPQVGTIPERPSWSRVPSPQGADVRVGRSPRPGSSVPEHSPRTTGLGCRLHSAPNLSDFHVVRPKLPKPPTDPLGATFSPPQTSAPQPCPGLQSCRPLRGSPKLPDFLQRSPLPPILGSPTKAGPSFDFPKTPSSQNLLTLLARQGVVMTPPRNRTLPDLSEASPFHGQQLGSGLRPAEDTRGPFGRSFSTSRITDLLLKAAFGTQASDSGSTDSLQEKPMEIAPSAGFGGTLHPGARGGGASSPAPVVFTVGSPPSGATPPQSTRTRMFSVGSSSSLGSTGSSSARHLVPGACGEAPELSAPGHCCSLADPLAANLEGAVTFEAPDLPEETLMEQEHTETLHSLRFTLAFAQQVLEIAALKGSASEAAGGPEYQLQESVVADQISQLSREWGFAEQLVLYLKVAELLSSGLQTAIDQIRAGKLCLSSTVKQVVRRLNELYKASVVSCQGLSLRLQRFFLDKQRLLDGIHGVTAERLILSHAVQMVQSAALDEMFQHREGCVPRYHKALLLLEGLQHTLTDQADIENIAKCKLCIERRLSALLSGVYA

[6] = target: myc-tagged wild-type raptor (UniProt Q8N122)
Sequence of myc-tagged wild-type raptor (Q8N122 whole entry, looked up): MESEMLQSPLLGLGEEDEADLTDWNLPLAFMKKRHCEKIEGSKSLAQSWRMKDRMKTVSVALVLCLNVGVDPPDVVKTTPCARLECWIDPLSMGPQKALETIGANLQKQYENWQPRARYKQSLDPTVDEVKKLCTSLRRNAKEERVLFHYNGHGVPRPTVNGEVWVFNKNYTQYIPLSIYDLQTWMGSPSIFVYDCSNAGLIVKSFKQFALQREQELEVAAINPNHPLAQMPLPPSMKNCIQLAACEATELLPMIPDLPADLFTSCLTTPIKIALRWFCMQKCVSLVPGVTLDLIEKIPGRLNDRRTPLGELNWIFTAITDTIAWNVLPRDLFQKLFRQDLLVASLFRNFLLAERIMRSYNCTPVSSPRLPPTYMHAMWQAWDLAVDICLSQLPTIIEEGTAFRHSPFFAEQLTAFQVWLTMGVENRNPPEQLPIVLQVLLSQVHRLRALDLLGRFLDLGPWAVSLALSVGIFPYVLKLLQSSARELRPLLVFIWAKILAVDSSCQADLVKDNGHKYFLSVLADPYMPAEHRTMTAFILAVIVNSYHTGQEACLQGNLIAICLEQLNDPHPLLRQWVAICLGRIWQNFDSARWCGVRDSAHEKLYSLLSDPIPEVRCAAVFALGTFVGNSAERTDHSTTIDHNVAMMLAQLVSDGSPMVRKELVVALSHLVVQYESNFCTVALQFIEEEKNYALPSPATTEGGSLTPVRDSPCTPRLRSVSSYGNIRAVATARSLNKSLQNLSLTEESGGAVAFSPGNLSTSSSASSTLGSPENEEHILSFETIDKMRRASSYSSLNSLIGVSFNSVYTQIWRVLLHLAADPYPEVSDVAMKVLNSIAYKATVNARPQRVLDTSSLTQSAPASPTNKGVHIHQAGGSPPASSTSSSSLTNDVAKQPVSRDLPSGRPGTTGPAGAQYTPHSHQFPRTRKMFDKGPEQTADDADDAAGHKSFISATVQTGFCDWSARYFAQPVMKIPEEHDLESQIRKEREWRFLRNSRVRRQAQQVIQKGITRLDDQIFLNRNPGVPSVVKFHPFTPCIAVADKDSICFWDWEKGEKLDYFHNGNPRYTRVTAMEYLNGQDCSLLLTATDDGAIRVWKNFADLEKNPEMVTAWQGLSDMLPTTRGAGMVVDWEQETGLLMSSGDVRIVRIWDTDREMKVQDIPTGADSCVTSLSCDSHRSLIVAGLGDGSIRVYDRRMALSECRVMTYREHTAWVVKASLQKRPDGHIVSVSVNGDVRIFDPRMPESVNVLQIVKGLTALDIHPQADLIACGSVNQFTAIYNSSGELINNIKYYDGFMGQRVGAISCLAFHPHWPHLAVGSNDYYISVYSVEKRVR

NC(=O)c1ncn([C@@H]2O[C@H](CO)[C@@H](O)[C@H]2O)c1N [AICAR]
phosphorylation of endogenous ULK1 on Ser555 [1]: phosphorylation of endogenous ULK1 was observed on Ser555 in an AMPK-dependent manner; also recorded: phosphorylated on Ser555 in an AMPK-dependent manner

CN(C)C(=N)N=C(N)N [metformin]
phosphorylation of endogenous ULK1 Ser555 [2]: Increased phosphorylation of endogenous ULK1 Ser555 was observed in wild-type but not AMPK-deficient hepatocytes

[H]/N=C(/N)N/C(=N/[H])NCCc1ccccc1 [phenformin]
tryptic peptides containing Phospho-Ser555 and Phospho-Ser637 of ULK1, quantitative mass spectrometry (MS/MS TIC ratio quantification) ([3]; 5 mM phenformin for 1 h): induced | phosphorylation of ULK1 candidate AMPK sites Ser555, Thr574, Ser637 detected by tandem mass spectrometry ([3]; epitope-tagged ULK1, with or without 5 mM phenformin for 1 hour): all three were phosphorylated only after phenformin treatment | phosphorylation of ULK1 Ser467 and Ser555 (phospho-specific antibodies) [4]: Phosphorylation of both sites was induced

purified active AMPK heterotrimer (partially purified rat liver, Millipore cat #14-305)
in vitro kinase assay, 32P incorporation [5]: AMPK phosphorylated ULK1 to a greater extent than an established substrate, Raptor | in vitro kinase assay, 32P incorporation [6]: AMPK phosphorylated ULK1 to a greater extent than an established substrate, Raptor
